# From BindingDB's records for patent US12138263 (Relay Therapeutics, 2024)
# Target: T1, Tyrosine-protein phosphatase non-receptor type 11 (Homo sapiens, UniProt Q06124)
# T1 sequence (Q06124 whole entry): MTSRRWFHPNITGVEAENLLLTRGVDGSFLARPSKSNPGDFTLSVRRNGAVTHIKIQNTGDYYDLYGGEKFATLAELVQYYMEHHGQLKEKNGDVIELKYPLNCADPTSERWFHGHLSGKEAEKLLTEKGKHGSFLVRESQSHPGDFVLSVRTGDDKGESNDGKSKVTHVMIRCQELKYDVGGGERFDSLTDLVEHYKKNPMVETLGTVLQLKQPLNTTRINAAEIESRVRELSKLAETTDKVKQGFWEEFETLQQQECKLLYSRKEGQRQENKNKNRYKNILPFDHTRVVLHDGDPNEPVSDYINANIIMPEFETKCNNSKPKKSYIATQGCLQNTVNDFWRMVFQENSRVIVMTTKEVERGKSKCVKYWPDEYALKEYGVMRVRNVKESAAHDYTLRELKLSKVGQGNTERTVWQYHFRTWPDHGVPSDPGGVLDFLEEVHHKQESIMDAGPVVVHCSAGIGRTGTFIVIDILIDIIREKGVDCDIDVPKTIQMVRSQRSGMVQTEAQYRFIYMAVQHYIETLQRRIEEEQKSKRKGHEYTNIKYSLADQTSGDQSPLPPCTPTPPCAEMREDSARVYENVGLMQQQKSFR
# Assay: SPH2 Allosteric Inhibition Assay and Binding
smiles,measurement,value
"CC1(CN)CCN(c2cnc3c(N4CCCc5c4cccc5S(=O)(=O)F)n[nH]c3n2)CC1 [US12138263, Compound 5A]",IC50,< 1000 nM
